From article PMC11073428, “The activity of pyrazolo[4,3-e][1,2,4]triazine and pyrazolo[4,3-e]tetrazolo[1,5-b][1,2,4]triazine sulphonamide derivatives in monolayer and spheroid breast cancer cell cultures” (Journal of Enzyme Inhibition and Medicinal Chemistry, 2024)
Like-named read-outs stand apart in the source and are kept apart here.

Experiments:
[1] = system: MCF-7 breast cancer cells; assay: Apoptosis, annexin V-FITC/PI flow cytometry, MCF-7; assay type: cell-based, human; conditions: 24 h; for early and late apoptotic cells: MCF-7, 0.5 µM
Description: (§1) The analysis was performed using flow cytometry Apoptosis Detection Kit II (BD Biosciences, San Diego, CA) as described previously.

[2] = system: MDA-MB-231 breast cancer cells; assay: Apoptosis, annexin V-FITC/PI flow cytometry, MDA-MB-231; assay type: cell-based, human; conditions: 24 h; for early and late apoptotic cells: MDA-MB-231, 0.5 µM
Description: as §1

[3] = system: Bax in MCF-7 cells; assay: Anti-Bax antibody flow cytometry, MCF-7; assay type: cell-based, human; conditions: MCF-7, 24 h
Description: (§2) To evaluate the molecular mechanism of induction of apoptosis of tested compounds, the level of p53, NF-κB, mTOR, Bax, and beclin-1 was measured using appropriate antibody according to the manufacturer’s instruction. In brief, tryspinised cells were centrifuged, then supernatant was discarded, and cells were suspended in 4% FA (formaldehyde). Prepared samples were incubated 15 min at RT. Following incubation, the 2.5 mL PBS was added to each sample and centrifuged. Then, supernatant was discarded, and cells were resuspended in 90% ice-cold methanol to perform permeabilisation and left for 1 h in ice. To remove methanol, cells were rinsed with excess PBS by centrifugation. Following centrifugation, the supernatant was discarded. Then, cells were resuspended in 100 µL of appropriate diluted (1:100 in PBS) antibody conjugate (p53 (7F5) Rabbit mAb – Alexa Fluor 488 Conjugate #5429 Cell Signalling Technology, Danvers, MA; NF-κB p65 (D14E12) XP Rabbit mAb – Alexa Fluor 647 Conjugate #8801 Cell Signalling Technology, Danvers, MA; mTOR (7C10) Rabbit mAB – Alexa Fluor 647 #5048 Cell Signalling Technology, Danvers, MA; FITC Anti-Bax antibody (T22-A) #ab139543, Abcam, Cambridge, UK) and incubated 1 h in the dark at RT. Afterwards, cells were washed by centrifugation in 2 mL of incubation buffer. Finally, supernatant was removed and 300 µL PBS was added to each sample and pipetted. The analysis was performed by flow cytometry (BD FACSCanto II, Becton Dickinson Biosciences Systems, San Jose, CA) using FACSDiva software ver. 6.1.3.

[4] = system: Bax in MDA-MB-231 cells; assay: Anti-Bax antibody flow cytometry, MDA-MB-231; assay type: cell-based, human; conditions: MDA-MB-231, 24 h
Description: as §2

[5] = system: beclin-1 in MCF-7 cells; assay: Anti-beclin-1 antibody flow cytometry, MCF-7; assay type: cell-based, human; conditions: MCF-7, 0.5 µM, 24 h
Description: (§3) The fixation and permeabilisation were performed as described above. Cells were resuspended in 100 µL of diluted primary antibody (1:100 in PBS, anti-beclin 1 antibody (2A4) #ab114071, Abcam, Cambridge, UK) and incubated 30 min in the dark at RT. The cells were washed three times by centrifugation in PBS. Then to each probe, 100 µL of diluted fluorochrome-labelled secondary antibody (1:100 in PBS; goat anti-mouse IgG H&L – Alexa Fluor 488 #ab150113, Abcam, Cambridge, UK) was added and incubated 30 min in dark at RT. Then, cells were rinsed with 2.5 mL PBS. In the last step, supernatant was discarded and cells were resuspended in 300 µL PBS and pipetted. The analysis was carried out by flow cytometry.

[6] = system: beclin-1 in MDA-MB-231 cells; assay: Anti-beclin-1 antibody flow cytometry, MDA-MB-231; assay type: cell-based, human; conditions: MDA-MB-231, 0.5 µM, 24 h
Description: as §3

[7] = system: MCF-7 spheroids; assay: 3D spheroid culture, MCF-7; assay type: cell-based, human; conditions: 0.25 µM and 0.5 µM
Description: (§4) The 3D cell culture was carried out with 6-Well Bio-Assembler Kit in accordance with the manufacturer’s instructions (Greiner Bio-One GmbH, Frickenhausen, Germany). First, MCF-7 and MDA-MB-231 were cultured in 2D using procedure and supplied to 80% confluency and treated with nanoshuttle at concentration of 1 µL/10 000 cell and incubated overnight. Following incubation, the medium was removed, and the cells were detached by trypsin–EDTA solution and resuspended in DMEM. The cells were counted using Scepter 2.0 Handheld Automated Cell Counter (Merck, Darmstadt, Germany) and plated at the concentration 1 × 10^6 cells per well in six-well plate. Then, cells were gently tilted in the flask to evenly distribute the nanoparticle and incubated (37 °C, 5% CO2, 95–98% humidity) for 1 h with magnet on the top of the plate. The cells self-assemble to spheroids. The obtained 3D cell culture was incubated until analysis.
(§5) The visualisation of the morphological changes in 3D cell culture of MCF-7 and MDA-MB-231 was evaluated using microscope (Nikon Eclipse Ti, Tokyo, Japan).
(§6) The mean ± standard deviation (SD) for all data is presented. One-way and two-way analysis of variance (ANOVA) was conducted followed by Dunnett’s test. GraphPad 8.0.1 Prism software (GraphPad Software, San Diego, CA) was used for calculation. The analysis of spheroids area was carried out using ImageJ software from the NIH (Bethesda, MD).

[8] = system: MDA-MB-231 spheroids; assay: 3D spheroid culture, MDA-MB-231; assay type: cell-based, human; conditions: 0.25 µM and 0.5 µM
Description: as §4, §5, §6

[9] = system: MCF-7 breast cancer cells; set-up: method as in PMID 27488500; conditions: 24 h incubation; read-out: IC50 in MCF-7 (previous studies); cited from earlier work
[10] = system: MDA-MB-231 breast cancer cells; set-up: method as in PMID 27488500; conditions: 24 h incubation; read-out: IC50 in MDA-MB-231 (previous studies); cited from earlier work
[11] = system: MCF-10A normal breast cells; set-up: method as in PMID 32575817; conditions: 24 h incubation; read-out: IC50 in MCF-10A (previous studies); cited from earlier work
[12] = in vitro; conditions: human
[13] = system: MCF-7 breast cancer cells; assay: MTT viability assay, MCF-7; conditions: for IC50: Homo sapiens, MCF7, 24 h, read-out: Cytotoxicity IC50 MCF-7
Description: (§7) Following 24-h incubation with tested compounds, the medium was discarded from the cell cultures. Then, into each well with cells was added 1 mL of PBS and 50 µL of MTT solution (5 mg per mL). Cells were incubated at 37 °C and 5% CO2 in humidified atmosphere for a defined time appropriate for each cell line. After incubation, the solution above the cells was removed and obtained purple formazan crystals were dissolved in 1 mL DMSO. The absorbance was read at OD = 570 nm on Evolution 201 Spectrophotometer (Thermo Scientific, Waltham, MA).

[14] = system: MDA-MB-231 breast cancer cells; assay: MTT viability assay, MDA-MB-231; conditions: for IC50: Homo sapiens, MDA-MB-231, 24 h, read-out: Cytotoxicity IC50 MDA-MB-231
Description: as §7

[15] = ratio of cytotoxicity, 3a vs 2a, 3b vs 2b

Structure (SMILES)	early and late apoptotic cells [1] [%]	early and late apoptotic cells [2] [%]	number of cells with active Bax (in words) [3]	number of cells with active Bax (in words) [4]	cells with active beclin-1 [5] [%]	cells with active beclin-1 [6] [%]	effect on spheroid formation (in words) [7]	effect on spheroid formation (in words) [8]	IC50 [9] [µM]	IC50 [10] [µM]	IC50 [11] [µM]	melting point [°C]	IC50 at 24 h [12] [µM]	IC50 [13] [µM]	IC50 [14] [µM]	apoptotic cells ([1]; MCF-7, 0.25 µM) [%]	apoptotic cells ([2]; MDA-MB-231, 0.25 µM) [%]	times stronger than the corresponding sulphonyl derivative (2a or 2b), MCF-7 [13, 15] [times]	times stronger than the corresponding sulphonyl derivative (2a or 2b), MDA-MB-231 [14, 15] [times]
N.N.[Cl][Pt][Cl] [Cisplatin, cisplatin, reference compound]	7.1 ± 0.9	7.6 ± 0.6	at the control level	at the control level	4.1 ± 0.5	3.6 ± 0.7	slightly affected growth of spheroids	slightly affected growth of spheroids	93	82	> 100								
Cc1nn(-c2ccc(S(=O)(=O)N[C@H](CO)Cc3ccccc3)cc2)c2nnc(S(C)(=O)=O)nc12 [Compound 2a, (S)-N-(1-Hydroxy-3-phenylpropan-2-yl)-4-(3-methyl-5-(methylsulfonyl)-1H-pyrazolo[4,3-e][1,2,4]triazin-1-yl)benzenesulfonamide]												130 to 134	> 10	6 ± 0.38	9.2 ± 0.78				
Cc1nn(-c2ccc(S(=O)(=O)N[C@@H](CO)Cc3ccccc3)cc2)c2nnc(S(C)(=O)=O)nc12 [Compound 2b, (R)-N-(1-Hydroxy-3-phenylpropan-2-yl)-4-(3-methyl-5-(methylsulfonyl)-1H-pyrazolo[4,3-e][1,2,4]triazin-1-yl)benzenesulfonamide]	14.6 ± 1.7	5.8 ± 1.8					slower formation of spheroids compared to untreated cells	slower formation of spheroids compared to untreated cells				124 to 128	> 10	5.5 ± 0.39	7.8 ± 0.53	9.8 ± 1.2	5.7 ± 0.6		
Cc1nn(-c2ccc(S(=O)(=O)N[C@H](CO)Cc3ccccc3)cc2)c2nn3nnnc3nc12 [Compound 3a, (S)-N-(1-Hydroxy-3-phenylpropan-2-yl)-4-(7-methyl-5H-pyrazolo[4,3-e]tetrazolo[1,5-b][1,2,4]triazin-6-yl)benzenesulfonamide]												172 to 176	3.5 ± 0.18	0.35 ± 0.08	0.71 ± 0.14			17	~13
